Assay results as given in patent US5498618A, “4-amino-N-(4-methyl-4-piperidinyl)-2-methoxybenzamides for treating smooth muscle contraction disorders” (Janssen Pharmaceutica N.V., priority 1993, dated 1996).

Tests used:
[1] = target: T1, 5HT2 serotonin receptor (Rattus norvegicus, UniProt P14842); test: 5HT2 receptor binding, [3H]ketanserin displacement; conditions: read-out: IC50 (inhibition of [3H]-ligand binding) (converted)
T1 construct: Cell membrane fractions, prepared from tissue homogenates or cells; from tissue
T1 sequence (P14842 whole entry): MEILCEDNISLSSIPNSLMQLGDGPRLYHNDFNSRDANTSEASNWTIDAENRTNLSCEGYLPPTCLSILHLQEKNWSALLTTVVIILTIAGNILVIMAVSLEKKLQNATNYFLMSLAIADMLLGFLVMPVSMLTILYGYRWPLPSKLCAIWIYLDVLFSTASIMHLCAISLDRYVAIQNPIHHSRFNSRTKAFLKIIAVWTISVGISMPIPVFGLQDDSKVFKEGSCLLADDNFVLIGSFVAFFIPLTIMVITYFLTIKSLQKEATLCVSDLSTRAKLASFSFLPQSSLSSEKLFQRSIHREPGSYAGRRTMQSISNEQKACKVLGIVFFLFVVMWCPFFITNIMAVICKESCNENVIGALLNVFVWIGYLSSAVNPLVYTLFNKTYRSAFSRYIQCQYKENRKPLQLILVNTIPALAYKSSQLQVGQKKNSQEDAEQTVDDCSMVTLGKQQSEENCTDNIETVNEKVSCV
Description: (§1) Cell membrane fractions, prepared from tissue homogenates or cells, were incubated with a radioactive [^3 H]-labelled substance (described hereinafter as the [^3 H]-ligand) known to bind specifically to a particular receptor, thus labeling this receptor. The [^3 H]-ligand used for each receptor site is mentioned in Table 1, as are the references wherein the experimental conditions of these tests are described.
(§2) After the incubation, the labelled membranes were harvested on glass fibre filters and rinsed twice with 5 ml of a cold buffer solution to remove non-bound [^3 H]-ligands. Subsequently the glass fibre filters, with the harvested membranes, were placed in plastic mini-vials and 2.0 ml of Ultima Gold™ scintillation cocktail was added. Vials were vigorously shaken and kept at 4° C. for 24 h. Thereafter radioactivity was counted in a liquid scintillation spectrometer. Said radioactivity is proportional to the membrane labelling by the [^3 H]-ligand.
(§3) Specific membrane labelling by the [^3 H]-ligand was distinguished from the non-specific membrane labelling by selectively inhibiting the labelling of the receptor site by another substance (unlabelled) known to compete with the [^3 H]-ligand for binding to said receptor site. The remaining non-specific labelling was substracted from all assays concerning said receptor site.
(§4) During the incubation the test compounds were able to compete with the [^3 H]-ligand for binding with the receptor. Subsequently the membranes were harvested and the radioactivity was measured as described above.
(§5) A compound having a high binding affinity is capable of displacing the [^3 H]-ligand from binding to the receptor, and consequently the radioactivity of the harvested membranes will be diminished. […] The values presented in table 1 are IC50 -values, i.e. the molar concentrations at which the test compound was able to inhibit 50% of the [^3 H]-ligand-binding
(§6) In the table "5HT2, 5HT1A, 5HT1B, 5HT1D, 5HT1C, 5HT3 " all refer to different types of serotonin receptor sites; "α2 " refers to the α2 -adrenergic receptor site; "H1 " refers to the histamine-H1 receptor site; and "D2 " refers to the dopamine-D2 -receptor site.

[2] = target: T2, 5HT1A serotonin receptor (Homo sapiens, UniProt P08908); test: 5HT1A receptor binding, [3H]8OHDPAT displacement; conditions: read-out: IC50 (inhibition of [3H]-ligand binding) (converted)
T2 construct: expressed in transfected cells
T2 sequence (P08908 1-422): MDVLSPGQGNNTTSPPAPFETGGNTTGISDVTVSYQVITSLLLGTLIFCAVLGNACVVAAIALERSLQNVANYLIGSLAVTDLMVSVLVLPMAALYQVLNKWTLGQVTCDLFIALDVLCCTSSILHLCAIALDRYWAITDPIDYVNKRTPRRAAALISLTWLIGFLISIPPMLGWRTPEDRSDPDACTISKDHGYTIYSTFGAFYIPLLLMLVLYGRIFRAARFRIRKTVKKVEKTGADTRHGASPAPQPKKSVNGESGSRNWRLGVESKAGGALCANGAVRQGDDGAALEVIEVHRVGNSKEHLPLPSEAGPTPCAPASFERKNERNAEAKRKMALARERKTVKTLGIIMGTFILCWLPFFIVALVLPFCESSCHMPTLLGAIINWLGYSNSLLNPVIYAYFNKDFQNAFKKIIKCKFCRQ
Description: as §1, §2, §3, §4, §5, §6

[3] = target: T3, 5HT1B serotonin receptor (Rattus norvegicus, UniProt P28564); test: 5HT1B receptor binding, [3H]serotonin displacement; conditions: read-out: IC50 (inhibition of [3H]-ligand binding) (converted)
T3 construct: Cell membrane fractions, prepared from tissue homogenates or cells; from tissue
T3 sequence (P28564 whole entry): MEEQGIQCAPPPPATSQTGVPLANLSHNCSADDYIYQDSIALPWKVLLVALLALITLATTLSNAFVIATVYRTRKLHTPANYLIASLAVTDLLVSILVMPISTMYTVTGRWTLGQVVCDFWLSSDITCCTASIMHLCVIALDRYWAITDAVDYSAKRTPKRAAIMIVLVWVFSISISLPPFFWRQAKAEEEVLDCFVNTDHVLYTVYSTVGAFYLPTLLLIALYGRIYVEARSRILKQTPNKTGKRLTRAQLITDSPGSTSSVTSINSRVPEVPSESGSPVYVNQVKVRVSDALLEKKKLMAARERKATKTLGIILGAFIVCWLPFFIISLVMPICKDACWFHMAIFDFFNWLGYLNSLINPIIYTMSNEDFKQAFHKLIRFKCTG
Description: as §1, §2, §3, §4, §5, §6

[4] = target: T4, 5HT3 serotonin receptor (Mus musculus, UniProt P23979); test: 5HT3 receptor binding, [3H]GR65630 displacement; conditions: read-out: IC50 (inhibition of [3H]-ligand binding) (converted)
T4 construct: Cell membrane fractions, prepared from tissue homogenates or cells; endogenous in cells
T4 sequence (P23979 24-489): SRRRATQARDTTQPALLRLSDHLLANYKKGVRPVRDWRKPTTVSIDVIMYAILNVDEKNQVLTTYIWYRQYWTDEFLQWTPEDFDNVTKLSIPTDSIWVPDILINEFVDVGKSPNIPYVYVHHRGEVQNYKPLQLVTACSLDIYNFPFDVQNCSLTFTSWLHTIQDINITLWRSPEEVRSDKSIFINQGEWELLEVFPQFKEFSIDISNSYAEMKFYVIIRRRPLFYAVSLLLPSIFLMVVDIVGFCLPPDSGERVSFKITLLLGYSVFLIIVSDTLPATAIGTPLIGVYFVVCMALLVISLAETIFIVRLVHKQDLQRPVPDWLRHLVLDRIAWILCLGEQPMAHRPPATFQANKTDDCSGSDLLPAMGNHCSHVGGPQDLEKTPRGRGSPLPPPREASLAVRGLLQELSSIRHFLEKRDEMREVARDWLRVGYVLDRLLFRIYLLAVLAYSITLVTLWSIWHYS
Description: as §1, §2, §3, §4, §5, §6
(f) Hoyer & Neijt, Eur. J. Pharmacol., 143, 191, 1987;

[5] = target: T5, histamine-H1 receptor (Cavia porcellus, UniProt P31389); test: histamine-H1 receptor binding, [3H]pyrilamine displacement; conditions: read-out: IC50 (inhibition of [3H]-ligand binding) (converted)
T5 construct: Cell membrane fractions, prepared from tissue homogenates or cells; from tissue
T5 sequence (P31389 whole entry): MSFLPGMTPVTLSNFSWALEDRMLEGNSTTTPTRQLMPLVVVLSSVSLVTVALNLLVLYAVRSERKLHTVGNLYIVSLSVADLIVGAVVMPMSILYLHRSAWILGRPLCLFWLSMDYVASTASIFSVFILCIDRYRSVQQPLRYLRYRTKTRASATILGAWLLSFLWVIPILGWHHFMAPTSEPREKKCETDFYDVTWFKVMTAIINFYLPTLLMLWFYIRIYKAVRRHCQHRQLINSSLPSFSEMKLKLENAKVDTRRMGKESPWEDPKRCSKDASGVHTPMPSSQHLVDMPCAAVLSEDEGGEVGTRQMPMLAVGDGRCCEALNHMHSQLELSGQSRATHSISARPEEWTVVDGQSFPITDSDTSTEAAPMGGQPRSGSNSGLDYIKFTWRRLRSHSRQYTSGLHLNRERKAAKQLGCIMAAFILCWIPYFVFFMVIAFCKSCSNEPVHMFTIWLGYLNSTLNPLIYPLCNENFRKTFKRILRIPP
Description: as §1, §2, §3, §4, §5, §6
(h) Chang et al., Eur. J. Pharmacol., 48, 463-464, 1978; Laduron et al.,

[6] = target: T6, dopamine-D2 receptor (Rattus norvegicus, UniProt P61169); test: dopamine-D2 receptor binding, [3H]haloperidol displacement; conditions: read-out: IC50 (inhibition of [3H]-ligand binding) (converted)
T6 construct: Cell membrane fractions, prepared from tissue homogenates or cells; from tissue
T6 sequence (P61169 whole entry): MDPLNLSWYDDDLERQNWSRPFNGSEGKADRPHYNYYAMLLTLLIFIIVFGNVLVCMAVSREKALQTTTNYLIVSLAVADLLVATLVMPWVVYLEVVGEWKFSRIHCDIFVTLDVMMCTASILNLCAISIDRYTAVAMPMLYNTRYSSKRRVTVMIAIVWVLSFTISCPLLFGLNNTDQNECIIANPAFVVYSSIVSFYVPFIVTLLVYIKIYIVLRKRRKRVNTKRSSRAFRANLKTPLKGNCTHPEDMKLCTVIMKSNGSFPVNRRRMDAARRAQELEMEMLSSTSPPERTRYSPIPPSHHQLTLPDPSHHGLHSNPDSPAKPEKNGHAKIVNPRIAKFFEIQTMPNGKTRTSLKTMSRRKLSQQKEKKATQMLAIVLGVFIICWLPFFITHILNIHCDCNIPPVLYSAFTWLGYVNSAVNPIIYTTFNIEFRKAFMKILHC
Description: as §1, §2, §3, §4, §5, §6

[7] = system: serotonin-induced contraction of caudal artery of the rat; test: Antagonistic activity on the effect of serotonin on the caudal artery of the rat; format: cell-based; conditions: 5 min; rat caudal artery strips; serotonin 40 ng/ml; 5 minutes after adding the drug; read-out: ED50 (minimal concentration which reduces the amplitude of the contractions by at least 50% of its normal value)
Description: Antagonistic activity on the effect of serotonin on the caudal artery of the rat.
Caudal arteries from the fasted male rats (210-235 g) were used in the test. Two helical strips having a length of 5-6 cm and a width of 2 mm were obtained from each artery and mounted vertically in a 100 ml organ bath containing an oxygenated Krebs-Henseleit solution. Submaximal contractions of the arterial strips were produced by adding single doses of serotonin (40 ng/ml) to the organ bath for 2 minutes with each time an interval of 10 minutes. The amplitude of the contractions was measured before and 5 minutes after adding the drug. After washing out, the agonist was added again three times in order to see whether the contraction was restored and normalized. […] The ED50 -values are the minimal concentrations of the concerned drugs which reduce the amplitude of the contractions by at least 50% of its normal value.

Row | Compound | IC50 [1] [µM] | IC50 [2] [µM] | IC50 [3] [µM] | IC50 [4] [µM] | IC50 [5] [µM] | IC50 [6] [µM] | IC50 [7] [µM]
1 | COc1cc(N)c(I)cc1C(=O)NC1(C)CCN(CCCOc2ccc(F)cc2)CC1 [Compound 1, 4-amino-N-[1-[3-(4-fluorophenoxy)propyl]-4-methyl-4-piperidinyl]-5-iodo-2-methoxybenzamide] | 0.000603 | 0.457 | 8.91 | 4.17 | 6.46 | 0.0275 | 0.00027
2 | COc1cc(N)c(Cl)cc1C(=O)NC1(C)CCN(CCCOc2ccc(F)cc2)CC1 [Compound 2, 4-amino-5-chloro-N-[1-[3-(4-fluorophenoxy)propyl]-4-methyl-4-piperidinyl]-2-methoxybenzamide] | 0.000251 | 0.661 | 6.61 | 1.7 | 4.57 | 0.0295 | 0.00015
3 | COc1cc(N)c(Br)cc1C(=O)NC1(C)CCN(CCCOc2ccc(F)cc2)CC1 [Compound 3, 4-amino-5-bromo-N-[1-[3-(4-fluorophenoxy)propyl]-4-methyl-4-piperidinyl]-2-methoxybenzamide] | 0.000661 | 0.407 | 6.61 | 1.44 | 10 | 0.0479 | 
4 | COc1cc(N)c(Cl)cc1C(=O)NC1(C)CCN(CCCOc2ccc(F)cc2Br)CC1 [Compound 4, 4-amino-N-[1-[3-(2-bromo-4-fluorophenoxy)propyl]-4-methyl-4-piperidinyl]-5-chloro-2-methoxybenzamide] | 0.000631 | 0.417 | 10 | 0.191 | 2.88 | 0.0229 | 0.00012
5 | COc1cc(N)ccc1C(=O)NC1(C)CCN(CCCOc2ccc(F)cc2)CC1 [Compound 5, 4-amino-N-[1-[3-(4-fluorophenoxy)propyl]-4-methyl-4-piperidinyl]-2-methoxybenzamide] | 0.000178 | 2.24 | > 10 | > 10 | 3.72 | 0.0851 | 0.000213
6 | COc1cc(N=[N+]=[N-])c(I)cc1C(=O)NC1(C)CCN(CCCOc2ccc(F)cc2)CC1 [Compound 7, 4-azido-N-[1-[3-(4-fluorophenoxy)propyl]-4-methyl-4-piperidinyl]-5-iodo-2-methoxybenzamude hemihydrate] | 0.00741 | 0.0891 | 3.24 | 10 | 7.94 | 0.0661 | 
7 | COc1cc(N=[N+]=[N-])c(Br)cc1C(=O)NC1(C)CCN(CCCOc2ccc(F)cc2)CC1 [Compound 8, 4-azido-5-bromo-N-[1-[3-(4-fluorophenoxy)propyl]-4-methyl-4-piperidinyl]-2-methoxybenzamide] | 0.00355 | 0.219 | 3.31 | 8.32 | 8.51 | 0.0631 | 
